# Biological target: Aβ42 (Homo sapiens, UniProt P05067)
# Assay: Th-T (thioflavin-T) assay of Aβ42 aggregation
# Assay type: biochemical
# Details: for Th-T fluorescence of Aβ42 (sheet Fig. 7a), mean of three wells: head suffix _50 (concentration 50); for Th-T assay plate reading, mean of three wells (Supplementary Fig. 47): source data, Ab alone and No Ab as controls; for Th-T fluorescence, mean of three wells: Supplementary Fig. 47 source data
# Chain of Aβ42 (P05067 672-713): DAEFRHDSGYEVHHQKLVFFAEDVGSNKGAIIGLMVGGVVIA
smiles,measurement,setting,value
C=C1CC[C@@H]2[C@](C)(CC[C@H]3O[C@H](C=C(C)C)C[C@@]23C)[C@@H]1Cc1c(OC)oc(CO)c(C)c1=O [Compound 20],"Th-T fluorescence of Aβ42 (sheet Fig. 7a), mean of three wells",reading M73,2.113
same,"Th-T fluorescence of Aβ42 (sheet Fig. 7a), mean of three wells",reading M74,2.11
same,"Th-T fluorescence of Aβ42 (sheet Fig. 7a), mean of three wells",reading M75,2.1032
same,"Th-T fluorescence of Aβ42 (sheet Fig. 7a), mean of three wells",reading M76,2.123
same,"Th-T fluorescence of Aβ42 (sheet Fig. 7a), mean of three wells",reading M77,2.122
same,"Th-T fluorescence of Aβ42 (sheet Fig. 7a), mean of three wells",reading M78,2.117
same,"Th-T fluorescence of Aβ42 (sheet Fig. 7a), mean of three wells",reading M79,2.1153
same,"Th-T fluorescence of Aβ42 (sheet Fig. 7a), mean of three wells",reading M80,2.1
same,"Th-T fluorescence of Aβ42 (sheet Fig. 7a), mean of three wells",reading M81,2.1
same,"Th-T fluorescence of Aβ42 (sheet Fig. 7a), mean of three wells",reading M82,2.102
same,"Th-T fluorescence of Aβ42 (sheet Fig. 7a), mean of three wells",reading M83,2.096
same,"Th-T fluorescence of Aβ42 (sheet Fig. 7a), mean of three wells",reading M84,2.077
same,"Th-T assay plate reading, mean of three wells (Supplementary Fig. 47)",measurement M1,0.2292
same,"Th-T assay plate reading, mean of three wells (Supplementary Fig. 47)",measurement M2,0.2238
same,"Th-T assay plate reading, mean of three wells (Supplementary Fig. 47)",measurement M3,0.2417
same,"Th-T assay plate reading, mean of three wells (Supplementary Fig. 47)",measurement M4,0.2884
same,"Th-T assay plate reading, mean of three wells (Supplementary Fig. 47)",measurement M5,0.3754
same,"Th-T assay plate reading, mean of three wells (Supplementary Fig. 47)",measurement M6,0.3834
same,"Th-T assay plate reading, mean of three wells (Supplementary Fig. 47)",measurement M7,0.4602
same,"Th-T assay plate reading, mean of three wells (Supplementary Fig. 47)",measurement M8,0.4852
same,"Th-T assay plate reading, mean of three wells (Supplementary Fig. 47)",measurement M9,0.5189
same,"Th-T assay plate reading, mean of three wells (Supplementary Fig. 47)",measurement M10,0.5747
same,"Th-T assay plate reading, mean of three wells (Supplementary Fig. 47)",measurement M11,0.6382
same,"Th-T assay plate reading, mean of three wells (Supplementary Fig. 47)",measurement M12,0.9536
same,"Th-T assay plate reading, mean of three wells (Supplementary Fig. 47)",measurement M13,1.7846
same,"Th-T assay plate reading, mean of three wells (Supplementary Fig. 47)",measurement M14,2.679
same,"Th-T assay plate reading, mean of three wells (Supplementary Fig. 47)",measurement M15,3.243
same,"Th-T assay plate reading, mean of three wells (Supplementary Fig. 47)",measurement M16,3.548
same,"Th-T fluorescence, mean of three wells (Fig. 7a)","reading M107, compound at 10 (head suffix _10)",3.243
same,"Th-T fluorescence, mean of three wells (Fig. 7a)","reading M107, compound at 20 (head suffix _20)",3.218
same,"Th-T fluorescence, mean of three wells (Fig. 7a)","reading M107, compound at 50 (head suffix _50)",2.093
same,"Th-T fluorescence, mean of three wells (Fig. 7a)","reading M108, compound at 10 (head suffix _10)",3.266
same,"Th-T fluorescence, mean of three wells (Fig. 7a)","reading M108, compound at 20 (head suffix _20)",3.22
same,"Th-T fluorescence, mean of three wells (Fig. 7a)","reading M108, compound at 50 (head suffix _50)",2.097
same,"Th-T fluorescence, mean of three wells (Fig. 7a)","reading M109, compound at 10 (head suffix _10)",3.248
same,"Th-T fluorescence, mean of three wells (Fig. 7a)","reading M109, compound at 20 (head suffix _20)",3.217
same,"Th-T fluorescence, mean of three wells (Fig. 7a)","reading M109, compound at 50 (head suffix _50)",2.11
same,"Th-T fluorescence, mean of three wells (Fig. 7a)","reading M110, compound at 10 (head suffix _10)",3.266
same,"Th-T fluorescence, mean of three wells (Fig. 7a)","reading M110, compound at 20 (head suffix _20)",3.23
same,"Th-T fluorescence, mean of three wells (Fig. 7a)","reading M110, compound at 50 (head suffix _50)",2.1005
same,"Th-T fluorescence, mean of three wells (Fig. 7a)","reading M111, compound at 10 (head suffix _10)",3.255
same,"Th-T fluorescence, mean of three wells (Fig. 7a)","reading M111, compound at 20 (head suffix _20)",3.22
same,"Th-T fluorescence, mean of three wells (Fig. 7a)","reading M111, compound at 50 (head suffix _50)",2.105
same,"Th-T fluorescence, mean of three wells (Fig. 7a)","reading M112, compound at 10 (head suffix _10)",3.256
same,"Th-T fluorescence, mean of three wells (Fig. 7a)","reading M112, compound at 20 (head suffix _20)",3.191
same,"Th-T fluorescence, mean of three wells (Fig. 7a)","reading M112, compound at 50 (head suffix _50)",2.0956
same,"Th-T fluorescence, mean of three wells (Fig. 7a)","reading M113, compound at 10 (head suffix _10)",3.234
same,"Th-T fluorescence, mean of three wells (Fig. 7a)","reading M113, compound at 20 (head suffix _20)",3.181
same,"Th-T fluorescence, mean of three wells (Fig. 7a)","reading M113, compound at 50 (head suffix _50)",2.0902
same,"Th-T fluorescence, mean of three wells (Fig. 7a)","reading M114, compound at 10 (head suffix _10)",3.244
same,"Th-T fluorescence, mean of three wells (Fig. 7a)","reading M114, compound at 20 (head suffix _20)",3.188
same,"Th-T fluorescence, mean of three wells (Fig. 7a)","reading M114, compound at 50 (head suffix _50)",2.0998
same,"Th-T fluorescence, mean of three wells (Fig. 7a)","reading M115, compound at 10 (head suffix _10)",3.222
same,"Th-T fluorescence, mean of three wells (Fig. 7a)","reading M115, compound at 20 (head suffix _20)",3.199
same,"Th-T fluorescence, mean of three wells (Fig. 7a)","reading M115, compound at 50 (head suffix _50)",2.1006
same,"Th-T fluorescence, mean of three wells (Fig. 7a)","reading M116, compound at 10 (head suffix _10)",3.244
same,"Th-T fluorescence, mean of three wells (Fig. 7a)","reading M116, compound at 20 (head suffix _20)",3.193
same,"Th-T fluorescence, mean of three wells (Fig. 7a)","reading M116, compound at 50 (head suffix _50)",2.109
same,"Th-T fluorescence, mean of three wells (Fig. 7a)","reading M117, compound at 10 (head suffix _10)",3.211
same,"Th-T fluorescence, mean of three wells (Fig. 7a)","reading M117, compound at 20 (head suffix _20)",3.166
same,"Th-T fluorescence, mean of three wells (Fig. 7a)","reading M117, compound at 50 (head suffix _50)",2.104
same,"Th-T fluorescence, mean of three wells (Fig. 7a)","reading M118, compound at 10 (head suffix _10)",3.228
same,"Th-T fluorescence, mean of three wells (Fig. 7a)","reading M118, compound at 20 (head suffix _20)",3.17
same,"Th-T fluorescence, mean of three wells (Fig. 7a)","reading M118, compound at 50 (head suffix _50)",2.102
same,"Th-T fluorescence, mean of three wells (Fig. 7a)","reading M119, compound at 10 (head suffix _10)",3.2146
same,"Th-T fluorescence, mean of three wells (Fig. 7a)","reading M119, compound at 20 (head suffix _20)",3.1938
same,"Th-T fluorescence, mean of three wells (Fig. 7a)","reading M119, compound at 50 (head suffix _50)",2.1065
same,"Th-T fluorescence, mean of three wells (Fig. 7a)","reading M120, compound at 10 (head suffix _10)",3.221
same,"Th-T fluorescence, mean of three wells (Fig. 7a)","reading M120, compound at 20 (head suffix _20)",3.171
same,"Th-T fluorescence, mean of three wells (Fig. 7a)","reading M120, compound at 50 (head suffix _50)",2.103
same,"Th-T fluorescence, mean of three wells (Fig. 7a)","reading M121, compound at 10 (head suffix _10)",3.196
same,"Th-T fluorescence, mean of three wells (Fig. 7a)","reading M121, compound at 20 (head suffix _20)",3.1528
same,"Th-T fluorescence, mean of three wells (Fig. 7a)","reading M121, compound at 50 (head suffix _50)",2.099
same,"Th-T fluorescence, mean of three wells (Fig. 7a)","reading M122, compound at 10 (head suffix _10)",3.2052
same,"Th-T fluorescence, mean of three wells (Fig. 7a)","reading M122, compound at 20 (head suffix _20)",3.15
same,"Th-T fluorescence, mean of three wells (Fig. 7a)","reading M122, compound at 50 (head suffix _50)",2.114
same,"Th-T fluorescence, mean of three wells (Fig. 7a)","reading M123, compound at 10 (head suffix _10)",3.204
same,"Th-T fluorescence, mean of three wells (Fig. 7a)","reading M123, compound at 20 (head suffix _20)",3.156
same,"Th-T fluorescence, mean of three wells (Fig. 7a)","reading M123, compound at 50 (head suffix _50)",2.111
same,"Th-T fluorescence, mean of three wells (Fig. 7a)","reading M124, compound at 10 (head suffix _10)",3.218
same,"Th-T fluorescence, mean of three wells (Fig. 7a)","reading M124, compound at 20 (head suffix _20)",3.1455
same,"Th-T fluorescence, mean of three wells (Fig. 7a)","reading M124, compound at 50 (head suffix _50)",2.111
same,"Th-T fluorescence, mean of three wells (Fig. 7a)","reading M125, compound at 10 (head suffix _10)",3.1992
same,"Th-T fluorescence, mean of three wells (Fig. 7a)","reading M125, compound at 20 (head suffix _20)",3.1234
same,"Th-T fluorescence, mean of three wells (Fig. 7a)","reading M125, compound at 50 (head suffix _50)",2.096
same,"Th-T fluorescence, mean of three wells (Fig. 7a)","reading M126, compound at 10 (head suffix _10)",3.205
same,"Th-T fluorescence, mean of three wells (Fig. 7a)","reading M126, compound at 20 (head suffix _20)",3.128
same,"Th-T fluorescence, mean of three wells (Fig. 7a)","reading M126, compound at 50 (head suffix _50)",2.099
same,"Th-T fluorescence, mean of three wells (Fig. 7a)","reading M127, compound at 10 (head suffix _10)",3.195
same,"Th-T fluorescence, mean of three wells (Fig. 7a)","reading M127, compound at 20 (head suffix _20)",3.121
same,"Th-T fluorescence, mean of three wells (Fig. 7a)","reading M127, compound at 50 (head suffix _50)",2.104
same,"Th-T fluorescence, mean of three wells (Fig. 7a)","reading M128, compound at 10 (head suffix _10)",3.198
same,"Th-T fluorescence, mean of three wells (Fig. 7a)","reading M128, compound at 20 (head suffix _20)",3.11
same,"Th-T fluorescence, mean of three wells (Fig. 7a)","reading M128, compound at 50 (head suffix _50)",2.109
same,"Th-T fluorescence, mean of three wells",time-course reading M97,4.216
same,"Th-T fluorescence, mean of three wells",time-course reading M98,4.216
same,"Th-T fluorescence, mean of three wells",time-course reading M99,4.236
same,"Th-T fluorescence, mean of three wells",time-course reading M100,4.238
same,"Th-T fluorescence, mean of three wells",time-course reading M101,4.225
same,"Th-T fluorescence, mean of three wells",time-course reading M102,4.201
same,"Th-T fluorescence, mean of three wells",time-course reading M103,4.222
same,"Th-T fluorescence, mean of three wells",time-course reading M104,4.203
same,"Th-T fluorescence, mean of three wells",time-course reading M105,4.225
same,"Th-T fluorescence, mean of three wells",time-course reading M106,4.21
same,"Th-T fluorescence, mean of three wells",time-course reading M107,4.216
same,"Th-T fluorescence, mean of three wells",time-course reading M108,4.2224
same,"Th-T fluorescence, mean of three wells",time-course reading M109,4.227
same,"Th-T fluorescence, mean of three wells",time-course reading M110,4.248
same,"Th-T fluorescence, mean of three wells",time-course reading M111,4.24
same,"Th-T fluorescence, mean of three wells",time-course reading M112,4.225
same,"Th-T fluorescence, mean of three wells",time-course reading M113,4.225
same,"Th-T fluorescence, mean of three wells",time-course reading M114,4.212
same,"Th-T fluorescence, mean of three wells",time-course reading M115,4.199
same,"Th-T fluorescence, mean of three wells",time-course reading M116,4.199
